In patent US11753407B2, “Compounds for treating spinal muscular atrophy” (PTC Therapeutics, Inc., priority 2012, dated 2023):

Columns and labels:
[1] = system: SMN2 minigene mRNA (SMN2-A minigene) in HEK293H cells; assay: SMN2 minigene mRNA splicing RT-qPCR assay in cultured cells; type: cell-based, human; details: Homo sapiens, HEK293-H; concentration increasing full length SMN2 mRNA 1.5-fold relative to vehicle-treated cells; HEK293H cells with SMN2-A minigene, 24 hours, 7-point concentration data; read-out: EC1.5x for production of full length SMN2 mRNA
Outline: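 Stable SMN2-A minigene HEK293H; cpd 7-pt 3.16-fold series, 200× in DMSO, 24 h, 37 °C, n=2. Lysates → multiplex RT-qPCR (minigene FL + GAPDH), efficiency-corrected ΔΔCt vs vehicle. EC1.5× = 1.5-fold FL mRNA gain.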

[2] = system: Smn protein in SMA patient fibroblast cells (GM03813); assay: Smn protein assay in cultured cells (SMN HTRF); type: cell-based, human; details: SMA patient fibroblast cells, 48 hours; for EC1.5x for Smn protein expression: 7-point concentration curve, SMN HTRF, concentration producing 1.5 times Smn protein vs DMSO vehicle control; for maximum fold (Fold) increase of Smn protein: 7-point concentration data, fold relative to vehicle control
Outline: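 Fibroblasts, SMA patient; 5,000 cells/well; 7-pt curve, 3.16-fold serial dilution; 48 h, 37 °C, 5% CO2; RIPA lysis 1 h RT; anti-SMN d2 + kryptate overnight RT; HTRF 665/620 nm; fold vs DMSO; EC1.5×, max fold.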

Row | Compound | EC (1.5-fold increase) [1] [µM] | EC1.5x for Smn protein expression [2] | maximum fold (Fold) increase of Smn protein [2] | melting point [°C]
1 | Cn1ncc2cc(-c3cc(=O)n4cc(N5CCNCC5)ccc4n3)ccc21 [Compound 490, 2-(1-methyl-1H-indazol-5-yl)-7-(piperazin-1-yl)-4H-pyrido[1,2-a]pyrimidin-4-one] | < 0.1 | *** (an EC1.5× between >0.3 μM and ≤1 μM is indicated by three stars (***)) | ***** (a fold increase >1.65 is indicated by five stars (*****)) | 206 to 208
2 | CN(C)C1CCN(c2ccc3nc(-c4ccc5c(cnn5C)c4)cc(=O)n3c2)CC1 [Compound 491, 7-[4-(dimethylamino)piperidin-1-yl]-2-(1-methyl-1H-indazol-5-yl)-4H-pyrido[1,2-a]pyrimidin-4-one] | 0.3 to 1 | ** (an EC1.5× between >1 μM and ≤3 μM is indicated by two stars (**)) | **** (a fold increase between >1.5 and ≤1.65 is indicated by four stars (****)) | 209 to 212
3 | CCN1CC=C(c2ccc3nc(-c4ccc5nc(C)oc5c4)cc(=O)n3n2)CC1 [Compound 493, 7-(1-ethyl-1,2,3,6-tetrahydropyridin-4-yl)-2-(2-methyl-1,3-benzoxazol-6-yl)-4H-pyrimido[1,2-b]pyridazin-4-one] | < 0.1 | *** (an EC1.5× between >0.3 μM and ≤1 μM is indicated by three stars (***)) | **** (a fold increase between >1.5 and ≤1.65 is indicated by four stars (****)) | 205 to 207
4 | CCN1CCN(c2ccc3nc(-c4cc(Cl)c5nc(C)cn5c4)cc(=O)n3c2)CC1 [Compound 494, 2-(8-chloro-2-methylimidazo[1,2-a]pyridin-6-yl)-7-(4-ethylpiperazin-1-yl)-4H-pyrido[1,2-a]pyrimidin-4-one] | < 0.1 | **** (an EC1.5x≤0.3 μM is indicated by four stars (****)) | **** (a fold increase between >1.5 and ≤1.65 is indicated by four stars (****)) | 264 to 268
5 | CCN1CCN(c2ccc3nc(-c4cc(Cl)c5nc(C)cn5c4)cc(=O)n3c2)C[C@H]1C [Compound 495, 2-(8-chloro-2-methylimidazo[1,2-a]pyridin-6-yl)-7-[(3R)-4-ethyl-3-methylpiperazin-1-yl]-4H-pyrido[1,2-a]pyrimidin-4-one] | < 0.1 | **** (an EC1.5x≤0.3 μM is indicated by four stars (****)) | ***** (a fold increase >1.65 is indicated by five stars (*****)) | 239 to 245
6 | CCN1CCN(c2ccc3nc(-c4cc(Cl)c5nc(C)cn5c4)cc(=O)n3c2)C[C@@H]1C [Compound 496, 2-(8-chloro-2-methylimidazo[1,2-a]pyridin-6-yl)-7-[(3S)-4-ethyl-3-methylpiperazin-1-yl]-4H-pyrido[1,2-a]pyrimidin-4-one] | < 0.1 | **** (an EC1.5x≤0.3 μM is indicated by four stars (****)) | ***** (a fold increase >1.65 is indicated by five stars (*****)) | 234 to 245
7 | Cc1cn2cc(-c3cc(=O)n4cc(N5CCN(C(C)C)[C@H](C)C5)ccc4n3)cc(Cl)c2n1 [Compound 497, 2-(8-chloro-2-methylimidazo[1,2-a]pyridin-6-yl)-7-[(3R)-3-methyl-4-(propan-2-yl)piperazin-1-yl]-4H-pyrido[1,2-a]pyrimidin-4-one] | < 0.1 | *** (an EC1.5× between >0.3 μM and ≤1 μM is indicated by three stars (***)) | **** (a fold increase between >1.5 and ≤1.65 is indicated by four stars (****)) | 278 to 281
8 | Cc1cn2cc(-c3cc(=O)n4cc(N5CCN(C(C)C)[C@@H](C)C5)ccc4n3)cc(Cl)c2n1 [Compound 498, 2-(8-chloro-2-methylimidazo[1,2-a]pyridin-6-yl)-7-[(3S)-3-methyl-4-(propan-2-yl)piperazin-1-yl]-4H-pyrido[1,2-a]pyrimidin-4-one] | < 0.1 | **** (an EC1.5x≤0.3 μM is indicated by four stars (****)) | ***** (a fold increase >1.65 is indicated by five stars (*****)) | 264 to 270
9 | Cc1nc2ccc(-c3cc(=O)n4nc(C5CCNCC5)ccc4n3)cc2o1 [Compound 499, 2-(2-methyl-1,3-benzoxazol-6-yl)-7-(piperidin-4-yl)-4H-pyrimido[1,2-b]pyridazin-4-one] | < 0.1 | **** (an EC1.5x≤0.3 μM is indicated by four stars (****)) | ***** (a fold increase >1.65 is indicated by five stars (*****)) | 126 to 128
10 | Cc1nc2ccc(-c3cc(=O)n4nc(C5CCN(C)CC5)ccc4n3)cc2o1 [Compound 500, 2-(2-methyl-1,3-benzoxazol-6-yl)-7-(1-methylpiperidin-4-yl)-4H-pyrimido[1,2-b]pyridazin-4-one] | 0.1 to 0.3 | *** (an EC1.5× between >0.3 μM and ≤1 μM is indicated by three stars (***)) | ***** (a fold increase >1.65 is indicated by five stars (*****)) | 272 to 275
11 | CCN1CCC(c2ccc3nc(-c4ccc5nc(C)oc5c4)cc(=O)n3n2)CC1 [Compound 501, 7-(1-ethylpiperidin-4-yl)-2-(2-methyl-1,3-benzoxazol-6-yl)-4H-pyrimido[1,2-b]pyridazin-4-one] | 0.1 to 0.3 | *** (an EC1.5× between >0.3 μM and ≤1 μM is indicated by three stars (***)) | ***** (a fold increase >1.65 is indicated by five stars (*****)) | 284 to 286
12 | Cc1cn2nc(-c3cc(=O)n4cc(C5CCN(C)CC5)ncc4n3)cc2c(C)n1 [Compound 503, 2-(4,6-dimethylpyrazolo[1,5-a]pyrazin-2-yl)-7-(1-methylpiperidin-4-yl)-4H-pyrazino[1,2-a]pyrimidin-4-one] | < 0.1 | **** (an EC1.5x≤0.3 μM is indicated by four stars (****)) | ***** (a fold increase >1.65 is indicated by five stars (*****)) | 257 to 259
13 | Cn1ncc2cc(-c3cc(=O)n4cc(C5=CCNCC5)ncc4n3)ccc21 [Compound 505, 2-(1-methyl-1H-indazol-5-yl)-7-(1,2,3,6-tetrahydropyridin-4-yl)-4H-pyrazino[1,2-a]pyrimidin-4-one] | < 0.1 | **** (an EC1.5x≤0.3 μM is indicated by four stars (****)) | **** (a fold increase between >1.5 and ≤1.65 is indicated by four stars (****)) | 228 to 230
14 | CN1CC=C(c2cn3c(=O)cc(-c4ccc5c(cnn5C)c4)nc3cn2)CC1 [Compound 506, 2-(1-methyl-1H-indazol-5-yl)-7-(1-methyl-1,2,3,6-tetrahydropyridin-4-yl)-4H-pyrazino[1,2-a]pyrimidin-4-one] | < 0.1 | **** (an EC1.5x≤0.3 μM is indicated by four stars (****)) | **** (a fold increase between >1.5 and ≤1.65 is indicated by four stars (****)) | 234 to 236
15 | Cc1cn2nc(-c3cc(=O)n4cc(N5CCN[C@H](C)C5)cc(C)c4n3)cc2c(C)n1 [Compound 509, 2-(4,6-dimethylpyrazolo[1,5-a]pyrazin-2-yl)-9-methyl-7-[(3R)-3-methylpiperazin-1-yl]-4H-pyrido[1,2-a]pyrimidin-4-one] | < 0.1 | *** (an EC1.5× between >0.3 μM and ≤1 μM is indicated by three stars (***)) | **** (a fold increase between >1.5 and ≤1.65 is indicated by four stars (****)) | 213 to 222
16 | Cc1cn2nc(-c3cc(=O)n4cc(N5CCN(C)[C@H](C)C5)cc(C)c4n3)cc2c(C)n1 [Compound 510, 7-[(3R)-3,4-dimethylpiperazin-1-yl]-2-(4,6-dimethylpyrazolo[1,5-a]pyrazin-2-yl)-9-methyl-4H-pyrido[1,2-a]pyrimidin-4-one] | < 0.1 | **** (an EC1.5x≤0.3 μM is indicated by four stars (****)) | ***** (a fold increase >1.65 is indicated by five stars (*****)) | 244 to 253
17 | CCN1CCN(c2cc(C)c3nc(-c4cc5c(C)nc(C)cn5n4)cc(=O)n3c2)C[C@H]1C [Compound 511, 2-(4,6-dimethylpyrazolo[1,5-a]pyrazin-2-yl)-7-[(3R)-4-ethyl-3-methylpiperazin-1-yl]-9-methyl-4H-pyrido[1,2-a]pyrimidin-4-one] | < 0.1 | ** (an EC1.5× between >1 μM and ≤3 μM is indicated by two stars (**)) | **** (a fold increase between >1.5 and ≤1.65 is indicated by four stars (****)) | 240 to 245
